Results reported in the supplement of paper PMC10627819.

How the values were obtained:
S. pneumoniae D39V [1] = experiment: Bliss interaction score (quartile over a dose matrix) (fitness difference); higher = more antagonism (negative = synergy)
Outline: (§1)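 Each OD595 reading at entry into stationary phase was scaled to the robust mean of the untreated wells on its plate, with a ceiling of 1. These ratios define fitness, and single-drug fitness was inferred from combinations. The Bliss score compares observed fitness with the product-based expectation and is reported as quartiles across all replicate types, technical, biological and donor/recipient.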

S. aureus Newman [2] = experiment: as above
Outline: as §1

S. aureus DSM 20231 [3] = experiment: as above
Outline: as §1

B. subtilis 168 [4] = experiment: as above
Outline: as §1

S. pneumoniae D39V [5] = experiment: fitness (endpoint OD595 vs no drug) (fraction); higher = more growth
Outline: (§2)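 Fitness compares growth at the stationary-phase transition with the robust mean of no-drug control wells, as a ratio of optical densities. The ratio is capped at 1. Wells of 384-well plates held 30 µl, or 55 µl for S. pneumoniae, inoculated at OD595 0.01. Readings at OD595 every 30 min for 14 h at 37 °C were corrected against the first reading.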

S. aureus Newman [6] = experiment: as above
Outline: as §2

S. aureus DSM 20231 [7] = experiment: as above
Outline: as §2

B. subtilis 168 [8] = experiment: as above
Outline: as §2
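Wherever Bliss interaction score (quartile over a dose matrix) is given: first quartile when negative (synergy) and third quartile when positive (antagonism).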
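Wherever fitness (endpoint OD595 vs no drug) is given: OD595 on entry to stationary phase over no-drug wells; at most 1.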

CCCCCCCCCC(=O)N[C@@H](Cc1c[nH]c2ccccc12)C(=O)N[C@H](CC(N)=O)C(=O)N[C@@H](CC(=O)O)C(=O)N[C@@H]1C(=O)NCC(=O)N[C@@H](CCCN)C(=O)N[C@@H](CC(=O)O)C(=O)N[C@H](C)C(=O)N[C@@H](CC(=O)O)C(=O)NCC(=O)N[C@H](CO)C(=O)N[C@@H]([C@H](C)CC(=O)O)C(=O)N[C@@H](CC(=O)c2ccccc2N)C(=O)O[C@@H]1C [Daptomycin] + CN(N=O)C(=O)N[C@@H](C=O)[C@@H](O)[C@H](O)[C@H](O)CO [Streptozotocin]
Details	Bliss interaction score
B. subtilis 168 [4]	-0.0562
S. aureus DSM 20231 [3]	0.0436
S. aureus Newman [2]	0.0468
S. pneumoniae D39V [1]	0.0898

fitness
Details	partner 0.15 µg/mL	partner 0.3 µg/mL	partner 0.6 µg/mL	partner 1.2 µg/mL	partner 2.4 µg/mL	partner 4.8 µg/mL
B. subtilis 168 [8], first compound 0.25 µg/mL	0.89	0.914	0.969	–	–	–
B. subtilis 168 [8], first compound 0.5 µg/mL	0.835	0.761	0.768	–	–	–
S. aureus DSM 20231 [7], first compound 0.5 µg/mL	0.817	0.778	0.732	–	–	–
S. aureus DSM 20231 [7], first compound 1 µg/mL	0.93	0.799	0.744	–	–	–
S. aureus DSM 20231 [7], first compound 2 µg/mL	0.871	0.818	0.748	–	–	–
S. aureus Newman [6], first compound 0.125 µg/mL	0.945	0.805	0.636	–	–	–
S. aureus Newman [6], first compound 0.25 µg/mL	0.957	0.855	0.594	–	–	–
S. aureus Newman [6], first compound 0.5 µg/mL	0.969	0.807	0.627	–	–	–
S. pneumoniae D39V [5], first compound 1 µg/mL	–	–	–	0.94	0.939	0.918
S. pneumoniae D39V [5], first compound 2 µg/mL	–	–	–	0.935	0.95	0.884
S. pneumoniae D39V [5], first compound 4 µg/mL	–	–	–	0.968	0.942	0.923

fitness, one replicate
Details	partner 0.15 µg/mL	partner 0.3 µg/mL	partner 0.6 µg/mL
B. subtilis 168 [8], first compound 0.125 µg/mL	0.889	0.968	0.935
B. subtilis 168 [8], first compound 1 µg/mL	0.658	0.674	0.669
S. aureus DSM 20231 [7], first compound 0.125 µg/mL	0.795	0.761	0.645
S. aureus DSM 20231 [7], first compound 0.25 µg/mL	0.883	0.764	0.656

CCCCCCCCCC(=O)N[C@@H](Cc1c[nH]c2ccccc12)C(=O)N[C@H](CC(N)=O)C(=O)N[C@@H](CC(=O)O)C(=O)N[C@@H]1C(=O)NCC(=O)N[C@@H](CCCN)C(=O)N[C@@H](CC(=O)O)C(=O)N[C@H](C)C(=O)N[C@@H](CC(=O)O)C(=O)NCC(=O)N[C@H](CO)C(=O)N[C@@H]([C@H](C)CC(=O)O)C(=O)N[C@@H](CC(=O)c2ccccc2N)C(=O)O[C@@H]1C [Daptomycin] + CN[C@H](CC(C)C)C(=O)N[C@H]1C(=O)N[C@@H](CC(N)=O)C(=O)N[C@H]2C(=O)N[C@H]3C(=O)N[C@H](C(=O)N[C@H](C(=O)O)c4cc(O)cc(O)c4-c4cc3ccc4O)[C@H](O)c3ccc(c(Cl)c3)Oc3cc2cc(c3O[C@@H]2O[C@H](CO)[C@@H](O)[C@H](O)[C@H]2O[C@H]2C[C@](C)(N)[C@H](O)[C@H](C)O2)Oc2ccc(cc2Cl)[C@H]1O [Vancomycin]
Details	Bliss interaction score
B. subtilis 168 [4]	0.0914
S. aureus DSM 20231 [3]	0.05
S. aureus Newman [2]	0.0383
S. pneumoniae D39V [1]	0.0724

Details	fitness
S. aureus DSM 20231 [7], first compound 0.5 µg/mL, partner 0.1875 µg/mL	≥ 1
S. aureus DSM 20231 [7], first compound 0.5 µg/mL, partner 0.375 µg/mL	≥ 1
S. aureus DSM 20231 [7], first compound 0.5 µg/mL, partner 0.75 µg/mL	≥ 1
S. aureus DSM 20231 [7], first compound 1 µg/mL, partner 0.1875 µg/mL	≥ 1
S. aureus DSM 20231 [7], first compound 1 µg/mL, partner 0.375 µg/mL	≥ 1
S. aureus DSM 20231 [7], first compound 1 µg/mL, partner 0.75 µg/mL	≥ 1
S. aureus DSM 20231 [7], first compound 2 µg/mL, partner 0.1875 µg/mL	0.906
S. aureus DSM 20231 [7], first compound 2 µg/mL, partner 0.375 µg/mL	0.975
S. aureus DSM 20231 [7], first compound 2 µg/mL, partner 0.75 µg/mL	0.935
S. aureus Newman [6], first compound 0.125 µg/mL, partner 0.1875 µg/mL	≥ 1
S. aureus Newman [6], first compound 0.125 µg/mL, partner 0.375 µg/mL	≥ 1
S. aureus Newman [6], first compound 0.125 µg/mL, partner 0.75 µg/mL	0.973
S. aureus Newman [6], first compound 0.25 µg/mL, partner 0.1875 µg/mL	≥ 1
S. aureus Newman [6], first compound 0.25 µg/mL, partner 0.375 µg/mL	0.998
S. aureus Newman [6], first compound 0.25 µg/mL, partner 0.75 µg/mL	0.985
S. aureus Newman [6], first compound 0.5 µg/mL, partner 0.1875 µg/mL	0.988
S. aureus Newman [6], first compound 0.5 µg/mL, partner 0.375 µg/mL	≥ 1
S. aureus Newman [6], first compound 0.5 µg/mL, partner 0.75 µg/mL	0.952
S. pneumoniae D39V [5], first compound 1 µg/mL, partner 0.03125 µg/mL	0.921
S. pneumoniae D39V [5], first compound 1 µg/mL, partner 0.0625 µg/mL	0.841
S. pneumoniae D39V [5], first compound 1 µg/mL, partner 0.25 µg/mL	0.116
S. pneumoniae D39V [5], first compound 1 µg/mL, partner 0.5 µg/mL	0.0905
S. pneumoniae D39V [5], first compound 2 µg/mL, partner 0.03125 µg/mL	0.915
S. pneumoniae D39V [5], first compound 2 µg/mL, partner 0.0625 µg/mL	0.885
S. pneumoniae D39V [5], first compound 2 µg/mL, partner 0.125 µg/mL	0.915
S. pneumoniae D39V [5], first compound 2 µg/mL, partner 0.25 µg/mL	0.103
S. pneumoniae D39V [5], first compound 2 µg/mL, partner 0.5 µg/mL	0.094
S. pneumoniae D39V [5], first compound 4 µg/mL, partner 0.03125 µg/mL	0.938
S. pneumoniae D39V [5], first compound 4 µg/mL, partner 0.0625 µg/mL	0.898
S. pneumoniae D39V [5], first compound 4 µg/mL, partner 0.125 µg/mL	0.904
S. pneumoniae D39V [5], first compound 4 µg/mL, partner 0.25 µg/mL	0.184
S. pneumoniae D39V [5], first compound 4 µg/mL, partner 0.5 µg/mL	0.0719

fitness, S. aureus DSM 20231 [7], one replicate
Details	partner 0.1875 µg/mL	partner 0.375 µg/mL	partner 0.75 µg/mL
first compound 0.125 µg/mL	0.901	≥ 1	≥ 1
first compound 0.25 µg/mL	0.853	≥ 1	≥ 1

CCCCCCCCCC(=O)N[C@@H](Cc1c[nH]c2ccccc12)C(=O)N[C@H](CC(N)=O)C(=O)N[C@@H](CC(=O)O)C(=O)N[C@@H]1C(=O)NCC(=O)N[C@@H](CCCN)C(=O)N[C@@H](CC(=O)O)C(=O)N[C@H](C)C(=O)N[C@@H](CC(=O)O)C(=O)NCC(=O)N[C@H](CO)C(=O)N[C@@H]([C@H](C)CC(=O)O)C(=O)N[C@@H](CC(=O)c2ccccc2N)C(=O)O[C@@H]1C [Daptomycin] + Cn1nnc(-c2ccc(-c3ccc(N4C[C@H](CO)OC4=O)cc3F)cn2)n1 [Tedizolid]
Details	Bliss interaction score
B. subtilis 168 [4]	0.0472
S. aureus DSM 20231 [3]	0.0665
S. aureus Newman [2]	0.0584
S. pneumoniae D39V [1]	-0.141

fitness
Details	partner 0.03125 µg/mL	partner 0.0625 µg/mL	partner 0.125 µg/mL	partner 0.25 µg/mL	partner 0.5 µg/mL
S. aureus DSM 20231 [7], first compound 0.5 µg/mL	–	0.896	0.832	0.322	–
S. aureus DSM 20231 [7], first compound 1 µg/mL	–	0.907	0.78	0.293	–
S. aureus DSM 20231 [7], first compound 2 µg/mL	–	0.896	0.677	0.389	–
S. aureus Newman [6], first compound 0.125 µg/mL	–	0.977	0.914	–	–
S. aureus Newman [6], first compound 0.25 µg/mL	–	0.97	0.879	–	–
S. aureus Newman [6], first compound 0.5 µg/mL	–	0.964	0.914	–	–
S. pneumoniae D39V [5], first compound 1 µg/mL	0.916	0.942	0.619	0.23	0.0913
S. pneumoniae D39V [5], first compound 2 µg/mL	0.917	0.905	0.625	0.245	0.0924
S. pneumoniae D39V [5], first compound 4 µg/mL	0.93	0.966	0.643	0.256	0.0875

fitness, S. aureus DSM 20231 [7], one replicate
Details	partner 0.0625 µg/mL	partner 0.125 µg/mL	partner 0.25 µg/mL
first compound 0.125 µg/mL	0.918	0.765	0.354
first compound 0.25 µg/mL	0.894	0.762	0.375
